{"source": "ChEMBL document CHEMBL1146515", "about": "“Four new triterpenoids from Maytenus ilicifolia” (J Nat Prod, 2004)", "assay_type_in_all_cases": "functional, cell-based", "key": {"KB": {"test_system": "KB", "assay": "Cytotoxicity against vincristine-sensitive human KB cells after 72 hrs by alamar blue assay"}, "HL-60": {"test_system": "HL-60", "assay": "Induction of human HL60 cell differentiation assessed as morphological change at 0.05 to 25 ug/ml by phase-contrast microscopy"}, "KB/VJ300 [1]": {"test_system": "KB/VJ300", "assay": "Reversal of vincristine resistance in human KB/VJ300 cells"}, "KB/VJ300 [2]": {"test_system": "KB/VJ300", "assay": "Cytotoxicity against vincristine-resistant human KB/VJ300 cells after 72 hrs by alamar blue assay"}, "Homo sapiens": {"organism": "Homo sapiens", "assay": "Cytotoxicity against human KU-19-20 cells after 72 hrs by alamar blue assay"}}, "note": "Calls of active or inactive are those of the source. The rule behind the calls is not given here."}
{"smiles": "C[C@H]1[C@H](C)CC[C@]2(CO)CC[C@]3(C)C(=CC[C@@H]4[C@@]5(C)CC[C@H](OC(=O)/C=C/c6ccc(O)c(O)c6)C(C)(C)[C@@H]5CC[C@]43C)[C@H]12", "values": [{"measurement": "IC50", "setting": "KB", "result": "> 10", "unit": "µg/mL"}, {"measurement": "Activity", "setting": "HL-60", "result": "inactive"}, {"measurement": "Activity", "setting": "KB/VJ300 [1]", "result": "inactive"}]}
{"smiles": "C=C(C)[C@@H]1CC[C@]2(CO)CC[C@]3(C)[C@H](CC[C@@H]4[C@@]5(C)CC[C@H](OC(=O)/C=C/c6ccc(O)c(O)c6)C(C)(C)[C@@H]5CC[C@]43C)[C@@H]12", "values": [{"measurement": "IC50", "setting": "KB", "result": "> 10", "unit": "µg/mL"}, {"measurement": "Activity", "setting": "HL-60", "result": "inactive"}, {"measurement": "Activity", "setting": "KB/VJ300 [1]", "result": "inactive"}]}
{"smiles": "CC1(C)CC[C@]2(CO)CC[C@]3(C)C(=CC[C@@H]4[C@@]5(C)CC[C@H](OC(=O)/C=C/c6ccc(O)c(O)c6)C(C)(C)[C@@H]5CC[C@]43C)[C@H]2C1", "values": [{"measurement": "IC50", "setting": "KB", "result": "> 10", "unit": "µg/mL"}, {"measurement": "Activity", "setting": "HL-60", "result": "inactive"}, {"measurement": "Activity", "setting": "KB/VJ300 [1]", "result": "inactive"}]}
{"smiles": "C=C(C)[C@@H]1CC[C@]2(CO)CC[C@]3(C)[C@H](CC[C@@H]4[C@@]5(C)CC[C@H](O)C(C)(C)[C@@H]5CC[C@]43C)[C@@H]12", "note": "[BETULIN]", "values": [{"measurement": "IC50", "setting": "KB", "result": "> 10", "unit": "µg/mL"}, {"measurement": "Activity", "setting": "HL-60", "result": "inactive"}, {"measurement": "Activity", "setting": "KB/VJ300 [1]", "result": "inactive"}]}
{"smiles": "CC1(C)CC[C@]2(CO)CC[C@]3(C)C(=CC[C@@H]4[C@@]5(C)CC[C@H](O)C(C)(C)[C@@H]5CC[C@]43C)[C@@H]2C1", "note": "[ERYTHRODIOL]", "values": [{"measurement": "IC50", "setting": "KB", "result": 7, "unit": "µg/mL"}, {"measurement": "Activity", "setting": "KB/VJ300 [2]", "result": "Active"}, {"measurement": "Activity", "setting": "Homo sapiens", "result": "Active"}, {"measurement": "Activity", "setting": "HL-60", "result": "inactive"}, {"measurement": "Activity", "setting": "KB/VJ300 [1]", "result": "inactive"}]}
{"smiles": "C=C(C)[C@@H]1CC[C@]2(CO)CC[C@]3(C)[C@H](CC[C@@H]4[C@@]5(C)C[C@@H](O)C(=O)C(C)(C)[C@@H]5CC[C@]43C)[C@H]12", "note": "[MAYTEFOLIN A]", "values": [{"measurement": "IC50", "setting": "KB", "result": "> 10", "unit": "µg/mL"}, {"measurement": "Activity", "setting": "HL-60", "result": "inactive"}, {"measurement": "Activity", "setting": "KB/VJ300 [1]", "result": "inactive"}]}
